Measured values: patent publication US11378572B2, “Therapeutic agent for immune cell migration-caused disease and method for screening same” (ZYMEDI CO., LTD., priority 2017, dated 2022)
“Also recorded” adds a separate entry of the source.

What was measured:
KRS = target: T1, KRS (Mus musculus, UniProt Q99MN1); assay: KRS level in plasma membrane/cytosol fractions by western blot (KRS translocation to the plasma membrane); format: cell-based; conditions: RAW 264.7 cells, laminin 421 1 μg/ml, 100 nM compound, 12 hours
T1 construct: KRS, which is expressed in monocytes/macrophages and usually present in the cytoplasmic domain, translocates to the plasma membrane by LN421 treatment; endogenous in cells; host or cells: RAW 264.7
Protocol: After dispensing RAW 264.7 cells (2×10^6 cells) in 100 mm dish and incubating for 18 hours, cells were treated with LN421 l g/ml in serum free DMEM media and harvested at 0 hour, 12 hour, 24 hour. Proteins of RAW 264.7 cells were separated into the cytosol and membrane fractions using ProteoExtract Subcellular Proteome Extraction Kit (Calbiotech, cat #539790). Obtained proteins were electrophoresed and transferred to PVDF membrane (Milipore) and blocked with 3% skim milk. KRS was then detected by western blot. Specifically, KRS polyclonal antibody (rabbit, Neomics, Co. Ltd. #NMS-01-0005) was added and reacted for 1 hour. Unbound antibody was removed and the membrane was added and reacted with anti-rabbit secondary antibody (ThermoFisher Scientific, #31460). After reacting with the secondary antibody, films were exposed in the dark room using ECL reagent as a substrate. […]
First, in order to determine whether various KRS inhibitor candidates could exert inhibitory effect on the KRS translocation to the plasma membrane, RAW 264.7 cells (2×10^6 cells) were dispensed in 100 mm dishes and incubated for 18 hours, followed by treatment with laminin 421 1 μg/ml in serum free DMEM, and 100 nM of each of various KRS inhibitor candidates, and cells were further incubated for 12 hours. […] Afterwards, KRS was detected by western blot, and the specific method were as described in Example 3. […]

RAW 264.7 cells = assay: Transwell migration assay of monocytes/macrophages; format: cell-based; conditions: laminin 421 1 μg/ml, 30 nM-3 μM, 24 hours, concentration-dependent
Protocol: Among several extracellular matrix (ECM), it was examined which ECM promotes the migration and infiltration of immune cells, typically monocytes/macrophages. A transwell migration assay was performed using collagen (Col), fibronectin (FN) and laminin (LN) as extracellular matrices, and detailed methods were as follows. Transwells (Corning, #3421-5 mm) were coated with gelatin (0.5 mg/ml) and RAW 264.7 cells (1×10^5 cells/well) were seeded into the top chambers. Serum free DMEM (500 μl) containing 10 μg/ml of laminin (laminin mixture, Biolamina), fibronectin or collagen, respectively, was placed in the bottom chambers. After 24 hours, cells were fixed with 70% methanol for 30 minutes and stained with 50% hematoxylin for 30 minutes. After removing non-migrating cells from the top of the membrane with a cotton swab, the membrane was taken and mounted on the slide. Migrating cells on the underside of the membrane were observed and quantified under a high magnification microscope.
Effect of laminin subtypes on the immune cell migration and infiltration was evaluated. A transwell migration assay was performed in the same manner as in Example 1 using LN111, LN211, LN221, LN411, LN421, LN511, and LN521 as various laminin subtype proteins (purchased from Biolamina). Specific sequences of laminin subtypes are referred to α4 chain of SEQ ID NO:4, α2 chain of SEQ ID NO: 10, α5 chain of SEQ ID NO: 11, β2 chain of SEQ ID NO:6, β1 chain of SEQ ID NO: 12, γ1 chain of SEQ ID NO: 8. according to the chain forming each laminin subtype,
For each of the transformed macrophages, a transwell migration assay was performed in the same manner as in Example 1 using 1 μg/ml of laminin 421.
Thus identified agents as inhibiting the translocation of KRS to the plasma membrane was added to the LN421-treated macrophages to perform a transwell migration assay. […] Migrating cells on the underside of the membrane were observed and quantified under a high magnification microscope. […]

[1] = tested on: CCl4 liver fibrosis animal; assay: CCl4 (carbon tetrachloride)-induced liver fibrosis animal model; format: in vivo, Actin-DsRed mice
Protocol: Hepatocytes appear red in Actin-DsRed mice (Stock no. #006051, Jackson Laboratory (Bar Harbor, USA)). In order to induce liver fibrosis in this mouse, CCl4 (carbon tetrachloride) was dissolved in corn oil and injected intraperitoneally twice a week at a concentration of 20% for a total of 6 weeks. Three weeks after start of CCl4 administration, vehicle and BC-KI-00053 (100 mg/kg) were administered orally, daily for three weeks. For vehicle, corn oil:polyethylene glycol 400:Tween 80:methyl cellulose (1%)=20:30:1:49 was used.
The degree of fibrosis on the surface and inside (area with a depth of 30-50 μm) of liver was detected by the Second Harmonic Generation (SHG) technique of intravial imaging (Excitation: 780 nm, Detection: 390 nm).

[2] = CCl4 6 weeks, BC-KI-00053 100 mg/kg oral daily for 3 weeks
[3] = normal animal (corn oil) + BC-KI-00053 100 mg/kg oral daily 3 weeks

T1 sequence (Q99MN1 whole entry, the tested form may be a part): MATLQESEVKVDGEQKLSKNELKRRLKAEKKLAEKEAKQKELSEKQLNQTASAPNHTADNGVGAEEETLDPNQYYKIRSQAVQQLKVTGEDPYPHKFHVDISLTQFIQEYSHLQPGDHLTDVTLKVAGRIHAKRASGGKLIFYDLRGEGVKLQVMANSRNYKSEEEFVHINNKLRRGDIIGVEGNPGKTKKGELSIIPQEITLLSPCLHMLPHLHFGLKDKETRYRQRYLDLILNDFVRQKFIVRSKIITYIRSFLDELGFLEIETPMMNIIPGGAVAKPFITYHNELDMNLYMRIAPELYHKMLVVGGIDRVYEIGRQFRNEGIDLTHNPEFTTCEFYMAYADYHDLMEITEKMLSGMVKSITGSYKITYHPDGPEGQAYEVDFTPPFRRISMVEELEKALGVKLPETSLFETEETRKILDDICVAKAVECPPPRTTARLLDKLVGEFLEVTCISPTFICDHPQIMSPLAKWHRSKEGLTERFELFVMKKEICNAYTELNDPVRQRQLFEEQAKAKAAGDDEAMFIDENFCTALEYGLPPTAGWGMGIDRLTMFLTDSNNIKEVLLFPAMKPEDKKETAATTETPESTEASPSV

`COc1ccc(CCN(Cc2ccc(C(=O)O)cc2)c2nc3cccc(F)c3s2)cc1` [BC-KI-00053, 4-({(7-fluorobenzo[d]thiazol-2-yl)[2-(4-methoxyphenyl)ethyl]amino}methyl)benzoic acid] was tested. Which “level of KRS in the plasma membrane region” value (KRS) did it give?
Its value is “reversed; also recorded: significantly lowered”.

What about the LN421-specific monocyte/macrophage migration (RAW 264.7 cells) of the same compound?
Its LN421-specific monocyte/macrophage migration is “noticeably suppressed; also recorded: significantly inhibited”.

What about the “fibrosis in the surface and inside the liver (SHG imaging)” value [1, 2] of the same compound?
The value was “greatly reduced”.

And the hepatocyte necrosis [1, 2]?
Its hepatocyte necrosis is “noticeably reduced”.

What about the “other symptoms in the liver” value [1, 3] of the same compound?
Its value is “no other symptoms”.

What about the weight loss [1, 3] of the same compound?
Its weight loss is “no weight loss”.

And the in vivo tolerability ([1]; normal animal + BC-KI-00053 100 mg/kg)?
The in vivo tolerability was “innocuous”.
